Test results from patent publication US20060199862A1, “Method for enhancing cognitive function” (priority 2005, published 2006).
Like-named read-outs stand apart in the source and are kept apart here.

Assays:
[1] = system: rats with chronic cerebral ischemia induced by chronic bilateral ligation of common carotid arteries; settings: for Latency, s Post-shock / Latency, s Pre-shock: test on day 8 since ligation, mean±SD, n=8; for Latency, s Post-shock: 24 hours after the shock
Method: The effect of the compound of the formula (I) on cognitive function was assessed in rats with chronic cerebral ischemia induced by chronic bilateral ligation of common carotid arteries. The ligation was made in Wistar male rats 3 hours prior the first injection of the compound of the formula (I) or saline. Rats were injected i.p. with 1 mg/kg or 50 mg/kg the compound of the formula (I) or saline (control) for 7 days singly a day. Passive avoidance step-through paradigm test (short-term learning) was made on day 8th since the ligation. The pre-shock and post-shock latency time was used as an index of cognitive impairments. […] Data are presented in table 1 as the latency time mean±SD (n=8).

[2] = system: rats with cognitive impairments induced by amyloid injection (A-beta 25-35 in nucleus basalis magnocellularis); settings: for Number of visits Repeated (to the same arm) / Number of visits Total (visited arms): Y-maze 5 min, next day after last injection, mean±SD, n=8
Method: Beta-amyloid 25-35 (A-beta 25-35) was injected in nucleus basalis magnocellularis (NBM) of rats to induce model of cognitive impairments relevant to human Alzheimer's disease as described. Harkany T et al., Behav Brain Res. 1998 90(2):133-45. Harkany T et al., Prog Neuropsychopharmacol Biol Psychiatry. 1999 23(6):963-1008.
A-beta 25-35 was administered bilaterally into NBM of male Wistar rats in dose of 2 μg per each side. Since 16th day of A-beta 25-35 injection, rats were injected i.p. with 1 mg/kg or 50 mg/kg the compound of the formula (I) or saline (control) for 7 days singly a day. The effect of the compound of the formula (I) on cognitive functions was tested in a model of spontaneous alteration in Y-maze at next day from the day of the last injection. It is a suitable model for assessing memory impairments. Total number of visited arms and number of repeated visits to the same arm for 5 min was counted. […] Data are presented in table 2 as the number of visits mean±SD (n=8).

[3] = 1 mg/kg i.p. once a day for 7 days
[4] = 50 mg/kg i.p. once a day for 7 days
[5] = 1 mg/kg i.p. once a day for 7 days from day 16 after A-beta 25-35
[6] = 50 mg/kg i.p. once a day for 7 days from day 16 after A-beta 25-35

With C[N+](C)(C)CCO.C[N+](C)(C)CCO.O=C([O-])CCC(=O)[O-] [Compound of the formula (I), bis[2-hydroxyethyl-N,N,N-trimethylaminium]butanedioate] the “Latency, s Post-shock” value [1, 3] was 99.3 ± 24.5 s, the “Latency, s Pre-shock” value [1, 3] was 13.5 ± 4.3 s and the “Latency, s Post-shock” value [1, 4] was 53.3 ± 16.3 s. The “Latency, s Pre-shock” value [1, 4] was 27.7 ± 13.1 s, the “Effect on cognitive function as compared to the control” value ([1]; cognitive impairments induced by chronic cerebral ischemia, vs saline control) was “significantly enhanced cognitive function” and the “Number of visits Repeated (to the same arm)” value [2, 5] was 0.65 ± 0.24. For the same compound, the “Number of visits Total (visited arms)” value [2, 5] was 3.00 ± 0.41, the “Number of visits Repeated (to the same arm)” value [2, 6] was 0.75 ± 0.29 and the “Number of visits Total (visited arms)” value [2, 6] was 2.55 ± 0.33. The “Effect on cognitive function (memory) as compared to the control” value ([2]; cognitive function impaired by amyloid toxicity, vs saline control) was “significantly enhanced cognitive function (memory)”.
